{
  "source": "patent US20040019118A1",
  "about": "“NMDA receptor antagonists and their use in inhibiting abnormal hyperphosphorylation of microtubule associated protein tau” (priority 2002, published 2004)",
  "assay_type_in_all_cases": "cell-based, rat",
  "key": {"CaMKII": {"system": "CaMKII", "assay": "CaMKII activity in extracts of treated hippocampal slice cultures", "procedure": "(§1) Organotypic cultures of rat hippocampal slices were prepared from 20-30 day old Wistar rats and cultured with the interface method as described previously (Stoppini, et al. 1991; Bahr, et al. 1995; Zhongrin, et al. 2000). The rats were anesthetized with ketamine (100 mg/kg body weight) and decapitated and the hippocampi were dissected out and sliced into 400 um coronal sections by a McIllwain tissue chopper. Select slices with uninterrupted bright transparent neuronal layers were plated, 1-3 slices/filter, onto Millicell CM filters (Millipore, Bedford, Mass.). For the first 2 days in vitro (DIV) cultures were maintained in 25% horse serum, 50% Basal Media-Eagle (BEM), 25% Eagle's Balanced Salt Solution (EBSS), 25 mM HEPES, 1 mM glutamine, 28 mM glucose, pH 7.2, at 32° C. in a 5% CO2 humidified atmosphere. The slice cultures were then switched to 25% horse serum, 50% BEM and EBSS modified so that the potassium concentration was 2.66 mM, for another 5 DIV. After 7 DIV, the cultures were maintained in physiological potassium containing 5% horse serum medium at 35° C. for at least 20 days before any treatment was applied. When the slices were treated, the reagents were applied into the culture medium. At different time points, the slices collected with a brush were washed twice in homogenizing buffer (50 mM HEPES, pH 7.0, 10 mM β-merceptoethanol [BME], 1 mM EDTA, 1 mM EGTA, 0.1 mM phenylmethyl sulfonyl fluoride [PMSF], 2.0 mM benzamidine and 2.0 μg/ml each of aprotinin, leupeptin and pepstatin) and homogenized at 4° C. using a Teflon-glass homogenizer. The homogenate was then divided into two parts, one was centrifuged at 16000×g for 15 min and the supernatant was used to assay activities of PP-2A and PP-1. The rest of the homogenate was diluted 1:1 with a phosphatase inhibitor cocktail (20 mM β-glycerophosphate, 2 mM Na3VO4 and 100 mM NaF, pH 7.0) and either used for Western blots or centrifuged at 16000×g for 15 min and the resulting supernatant used to determine the kinase activities.\n(§2) CaMKII activity was measured in 25 μl of buffer containing 50 mM HEPES, pH 7.5, 10 mM MgCl2, 2.0 mM CaCl2, 10 mM BME, 10 μg/ml calmodulin (CaM), 20 μM syntide (Sigma, St Louis Mo., USA), 0.06 mg/ml slice extract and 200 μM [γ^32P]ATP. The reaction was initiated by adding [γ32p] ATP. After incubation for 10 min at 30° C., 10 μl reaction mixture was removed and spotted on to phosphocellulose membrane. The membrane was then washed five times in 1% phosphoric acid to remove non-protein incorporated ^32P, dried and counted by Cerenkov radiation. The activity of PKA was determined as above except the reaction mixture contained 70 mM NaHPO4, pH 6.8, 14 mM MgCl2, 1.4 mM EDTA, 30 μM malantide (Sigma, St Louis, Mo., USA), 200 μM [γ^32p] ATP and 0.06 mg/ml slice extract."}, "PKA": {"system": "PKA", "assay": "PKA activity in extracts of treated hippocampal slice cultures", "procedure": "as §1, §2"}, "[1]": {"system": "hippocampal slices in culture", "assay": "Cell death by LDH activity released into the culture medium", "procedure": "as §1\nThe LDH released into the culture medium from the slices was determined calorimetrically using Cytotox 96R Non-Radioactive Cytotoxicity Assay Kit (Promega, Madison, Wis.) according to the manufacturer's protocol. The assay was carried out in 96-well microplates, and the results were read by a kinetic microplate reader (Molecular Devices) at a wavelength of 490 nm. Protein concentrations were assayed by the modified Lowry method (Bensadoun and Weinstein, 1976)."}, "tau": {"system": "tau", "assay": "Tau phosphorylation by radioimmuno-dot-blots and 125I-Western blots of slice homogenates", "procedure": "as §1, with “The” for “Organotypic cultures of rat hippocampal slices were prepared from 20-30 day old Wistar rats and cultured with the interface method as described previously (Stoppini, et al. 1991; Bahr, et al. 1995; Zhongrin, et al. 2000). The”, “For the first 2 days in vitro (DIV) cultures were maintained in 25% horse serum, 50% Basal Media-Eagle (BEM), 25% Eagle's Balanced Salt Solution (EBSS), 25 mM HEPES, 1 mM glutamine, 28 mM glucose, pH 7.2, at 32° C. in a 5% CO2 humidified atmosphere. The slice cultures were then switched to 25% horse serum, 50% BEM and EBSS modified so that the potassium concentration was 2.66 mM, for another 5 DIV.” left out\nTriplicate samples of each homogenate were applied to nitrocellulose membrane (Schleicher and Schuell, Keene, N.H.) and dried at 37° C."}, "pNF-H/M": {"system": "pNF-H/M", "assay": "Immunohistochemical staining of neurofilaments (pNF-H/M) in cultured hippocampal slices", "conditions": "100 nM OA 24 h", "procedure": "Organotypic cultures of rat hippocampal slices were prepared from 20-30 day old Wistar rats and cultured with the interface method as described previously (Stoppini, et al. 1991; Bahr, et al. 1995; Zhongrin, et al. 2000). The rats were anesthetized with ketamine (100 mg/kg body weight) and decapitated and the hippocampi were dissected out and sliced into 400 um coronal sections by a McIllwain tissue chopper. Select slices with uninterrupted bright transparent neuronal layers were plated, 1-3 slices/filter, onto Millicell CM filters (Millipore, Bedford, Mass.). For the first 2 days in vitro (DIV) cultures were maintained in 25% horse serum, 50% Basal Media-Eagle (BEM), 25% Eagle's Balanced Salt Solution (EBSS), 25 mM HEPES, 1 mM glutamine, 28 mM glucose, pH 7.2, at 32° C. in a 5% CO2 humidified atmosphere. The slice cultures were then switched to 25% horse serum, 50% BEM and EBSS modified so that the potassium concentration was 2.66 mM, for another 5 DIV. […]\nAfter different treatments some of the hippocampal slices were fixed in periodate/lysine/paraformaldehyde solution (Mclean, et al. 1974) at 33° C. for 5 h and then kept in 1% Triton-x-100 in PBS (pH 7.4) for 72 h at room temperature to improve the penetration of the antibodies. […] Peroxidase was detected using 0.05% diaminobenzidine (DAB) and H2O2 (0.01%) for 10 min."}, "[2]": {"conditions": "100 nM OA, 10 μM Memantine, 24 h"}, "[3]": {"conditions": "100 nM OA 24 h, then 10 μM Memantine 24 h"}},
  "note": "Entries after “also recorded” stand apart in the source; their conditions may differ.",
  "data": [
    {"compound": "CC12CC3CC(C)(C1)CC(N)(C3)C2", "note": "[Memantine, 1-amino-3,5-dimethyl adamantane]", "values": [
      {"measurement": "restoration of OA-stimulated CaMKII activity", "setting": "CaMKII; 100 nM OA and 1, 10 or 30 μM Memantine, 3-48 h (FIG. 2b), p<0.02", "result": "restored the OA-stimulated CaMKII activity to normal level"},
      {"measurement": "restoration of CaMKII activity", "setting": "CaMKII; 100 nM OA plus 10 μM Memantine 24 h, or OA 24 h, wash, then Memantine 24 h", "result": "Restoration of CaMKII activity; also recorded: almost completely restored; also recorded: restored the activities of both PP-2A and CaMKII"},
      {"measurement": "restoration of OA-stimulated CaMKII activity", "setting": "CaMKII; [2]", "result": "restored the OA-induced changes in the activities of PP-2A, CaMKII and PKA to normal levels; also recorded: practically completely restored"},
      {"measurement": "additional effect on restoration of CaMKII activity", "setting": "CaMKII; Memantine 10 to 30 μM, or 24 h to 48 h", "result": "Neither increase of Memantine from 10 μM to 30 μM nor duration of the treatment from 24 h to 48 h resulted in any significant additional effect"},
      {"measurement": "concentration giving full effect on restoration of CaMKII activity", "setting": "CaMKII; OA-treated slices", "result": 10, "unit": "µM"},
      {"measurement": "lowest concentration at which restoration of CaMKII activity was observed", "setting": "CaMKII; OA-treated slices", "result": 1, "unit": "µM"},
      {"measurement": "CaMKII activity after replacement of glutamate", "setting": "CaMKII; after 0.3 mM glutamate, fresh medium with or without 10 μM Memantine or 15 μM MK801", "result": "restored the CaMKII activity to normal level"},
      {"measurement": "effect on CaMKII activity in control (untreated) slices", "setting": "CaMKII; no OA", "result": "no significant effect"},
      {"measurement": "restoration of OA-induced change in PKA activity", "setting": "PKA; [2]", "result": "restored the OA-induced changes in the activities of PP-2A, CaMKII and PKA to normal levels"},
      {"measurement": "concentration (as low as) restoring OA-induced increase in PKA activity to normal level", "setting": "PKA; 100 nM OA, p<0.05", "result": 1, "unit": "µM"},
      {"measurement": "effect on PKA activity in control/untreated cultures", "setting": "PKA; no OA", "result": "no significant effect"},
      {"measurement": "concentration (as low as) that completely inhibited OA-induced cell death", "setting": "[1]; 100 nM OA, p<0.001 (FIG. 2d)", "result": 1, "unit": "µM"},
      {"measurement": "inhibition of OA-induced cell death", "setting": "[1]; 10 μM Memantine", "result": "completely inhibited"},
      {"measurement": "effect on LDH activity in the medium of control cultures", "setting": "[1]; 1-30 μM Memantine, no OA", "result": "no effect"},
      {"measurement": "lowest concentration with significant/detectable inhibition of OA-induced cell death", "setting": "[1]; OA-treated slices", "result": 1, "unit": "µM"},
      {"measurement": "restoration of OA-induced tau phosphorylation at Ser-214", "setting": "tau; [3]", "result": "restored the tau phosphorylation at Ser-262 and Ser-214 to normal levels"},
      {"measurement": "restoration of OA-induced tau phosphorylation at Ser-262", "setting": "tau; [3]", "result": "restored the tau phosphorylation at Ser-262 and Ser-214 to normal levels; also recorded: practically completely restored"},
      {"measurement": "restoration of phosphorylation of tau at Ser-262", "setting": "tau; 5 μM compound, OA-treated", "result": "restoration"},
      {"measurement": "concentration of maximal effect on tau phosphorylation at Ser-262", "setting": "tau; 2-10 μM tested, 24 h", "result": 5, "unit": "µM"},
      {"measurement": "lowest concentration inhibiting OA-induced tau phosphorylation at Ser-262", "setting": "tau; 2-10 μM tested, radioimmuno-dot-blot", "result": 2, "unit": "µM"},
      {"measurement": "effect on OA-induced phosphorylation of tau at Ser-422", "setting": "tau; Memantine in OA-treated cultures", "result": "no effect"},
      {"measurement": "effect on level of total tau", "setting": "tau; antibody 134d, radioimmuno-dot-blots", "result": "no detectable effect"},
      {"measurement": "neurofilament (pNF-H/M, SMI 31) immunostaining", "setting": "pNF-H/M; then 10 μM Memantine 24 h", "result": "reduced these changes; also recorded: partially reversed"}
    ]},
    {"compound": "C=C1[C@@H](O)[C@@H]2O[C@]3(CC[C@H](/C=C/[C@@H](C)[C@@H]4CC(C)=C[C@@]5(O[C@H](C[C@@](C)(O)C(=O)O)CC[C@H]5O)O4)O3)CC[C@H]2O[C@@H]1[C@@H](O)C[C@H](C)[C@H]1O[C@@]2(CCCCO2)CC[C@H]1C", "note": "[OA, Okadaic Acid]", "values": [
      {"measurement": "increase in CaMKII activity", "setting": "CaMKII; 10 nM OA, 24 h", "result": "~20", "unit": "%"},
      {"measurement": "CaMKII activity as % of control", "setting": "CaMKII; 100 nM OA, 24 h", "result": 180, "unit": "%"},
      {"measurement": "increase in CaMKII activity", "setting": "CaMKII; 100 nM OA, 24 h", "result": "~70", "unit": "%"},
      {"measurement": "increase in CaMKII activity", "setting": "CaMKII; 1,000 nM OA, 24 h", "result": "~140", "unit": "%"},
      {"measurement": "CaMKII activity as % of control", "setting": "CaMKII; 1000 nM OA, 24 h", "result": 240, "unit": "%"},
      {"measurement": "change in CaMKII activity", "setting": "CaMKII; OA-treated slice cultures", "result": "marked increase"},
      {"measurement": "increase in PKA activity", "setting": "PKA; 100 nM OA, 24 h or 48 h", "result": "~20", "unit": "%"},
      {"measurement": "change in PKA activity", "setting": "PKA; OA-treated slice cultures", "result": "no significant changes; also recorded: no significant alteration"},
      {"measurement": "cell death (LDH activity released in the medium)", "setting": "[1]; OA up to 1 μM, up to 48 h", "result": "increased with increase in OA concentration and treatment period; also recorded: markedly increased; also recorded: several-fold increase"},
      {"measurement": "phosphorylation of tau at Ser-214", "setting": "tau; OA-treated cultures", "result": "modest increase"},
      {"measurement": "phosphorylation of tau at Ser-262", "setting": "tau; OA-treated cultures", "result": "marked increase; also recorded: dramatic increase"},
      {"measurement": "phosphorylation of tau at Ser-422", "setting": "tau; OA-treated cultures", "result": "marked increase; also recorded: dramatic increase"},
      {"measurement": "neurofilament (pNF-H/M, SMI 31) immunostaining", "setting": "pNF-H/M; then medium 24 h", "result": "immunostaining was increased; also recorded: an increase in phosphorylation and accumulation of NF-H/M"}
    ]}
  ]
}
